The source of these data is US11331369B2, “Endoparasitic depsipeptides” (Zoetis Services LLC, priority 2017, dated 2022).

In one experiment the test system is microfilariae of Dirofilaria immitis. The experiment is described as follows: Dirofilaria immitis, Microfilaria (DiMF) In vitro Assay. It counts as cell-based. Particulars: 72 h, read-out: DiMF Minimum Effective Dose (MED), approximately 72 hours incubation, microfilariae assessed for survival or paralysis.
As for `CC(C)C[C@H]1C(=O)O[C@H](Cc2cccc(Cn3nc(C#N)cc3C#N)c2)C(=O)N(C)[C@@H](CC(C)C)C(=O)O[C@H](C)C(=O)N(C)[C@@H](CC(C)C)C(=O)O[C@H](Cc2cccc(Cn3nc(C#N)cc3C#N)c2)C(=O)N(C)[C@@H](CC(C)C)C(=O)O[C@H](C)C(=O)N1C` [Example 4-14, 1,1′-(((((2R,5S,8R,11S,14R,17S,20R,23S)-5, 11,17,23-tetraisobutyl-4,8,10,16,20,22-hexamethyl-3,6,9,12,15,18,21,24-octaoxo-1,7,13,19-tetraoxa-4,10,16,22-tetraazacyclotetracosane-2,14-diyl)bis(methylene))bis(3,1-phenylene))bis(methylene))bis(1H-pyrazole-3,5-dicarbonitrile)], the minimal effective concentration is 0.001 to 0.01 µM.

Take `CC(C)C[C@H]1C(=O)O[C@H](Cc2ccc(Cn3nc(CO)cc3CO)cc2)C(=O)N(C)[C@@H](CC(C)C)C(=O)O[C@H](C)C(=O)N(C)[C@@H](CC(C)C)C(=O)O[C@H](Cc2ccccc2)C(=O)N(C)[C@@H](CC(C)C)C(=O)O[C@H](C)C(=O)N1C` [Example 2-42, (3S,6R,9S,12R,15S,18R,21S,24R)-6-benzyl-18-(4-((3,5-bis(hydroxymethyl)-1H-pyrazol-1-yl)methyl)benzyl)-3,9,15,21-tetraisobutyl-4,10,12,16,22,24-hexamethyl-1,7,13,19-tetraoxa-4,10,16,22-tetraazacyclotetracosan-2,5,8,11,14,17,20,23-octaone]: the minimal effective concentration lay within 0.01 to 0.1 µM.

Take `CC(C)C[C@H]1C(=O)O[C@H](Cc2ccc(Cn3cc(S(=O)(=O)N4CCC4)cn3)cc2)C(=O)N(C)[C@@H](CC(C)C)C(=O)O[C@H](C)C(=O)N(C)[C@@H](CC(C)C)C(=O)O[C@H](Cc2ccccc2)C(=O)N(C)[C@@H](CC(C)C)C(=O)O[C@H](C)C(=O)N1C` [Example 2-27, (3S,6R,9S,12R,15S,18R,21S,24R)-6-(4-((4-(azetidin-1-ylsulfonyl)-1H-pyrazol-1-yl)methyl)benzyl)-18-benzyl-3,9,15,21-tetraisobutyl-4,10,12,16,22,24-hexamethyl-1,7,13,19-tetraoxa-4,10,16,22-tetraazacyclotetracosan-2,5,8,11,14,17,20,23-octaone]: the minimal effective concentration fell in the range of 0.01 to 0.1 µM. In the case of `CC(C)C[C@H]1C(=O)O[C@H](Cc2ccc(Cn3cc(OC(F)F)cn3)cc2)C(=O)N(C)[C@@H](CC(C)C)C(=O)O[C@H](C)C(=O)N(C)[C@@H](CC(C)C)C(=O)O[C@H](Cc2ccc(Cn3cc(OC(F)F)cn3)cc2)C(=O)N(C)[C@@H](CC(C)C)C(=O)O[C@H](C)C(=O)N1C` [Example 1b-140, (3S,6R,9S,12R,15S,18R,21S,24R)-6,18-bis(4-((4-(difluoromethoxy)-1H-pyrazol-1-yl)methyl)benzyl)-3,9,15,21-tetraisobutyl-4,10,12,16,22,24-hexamethyl-1,7,13,19-tetraoxa-4,10,16,22-tetraazacyclotetracosan-2,5,8,11,14,17,20,23-octaone], the minimal effective concentration was 0.01 to 0.1 µM. With `CC(C)C[C@H]1C(=O)O[C@H](Cc2ccc(Cn3cc(C(F)(F)F)cn3)cc2)C(=O)N(C)[C@@H](CC(C)C)C(=O)O[C@H](C)C(=O)N(C)[C@@H](CC(C)C)C(=O)O[C@H](Cc2ccc(Cn3cc(C(F)(F)F)cn3)cc2)C(=O)N(C)[C@@H](CC(C)C)C(=O)O[C@H](C)C(=O)N1C` [Example 1b-34, (3S,6R,9S,12R,15S,18R,21S,24R)-3,9,15,21-tetraisobutyl-4,6,10,16,18,22-hexamethyl-12,24-bis(4-((4-(trifluoromethyl)-1H-pyrazol-1-yl)methyl)benzyl)-1,7,13,19-tetraoxa-4,10,16,22-tetraazacyclotetracosan-2,5,8,11,14,17,20,23-octaone], the minimal effective concentration was 0.01 to 0.1 µM. For `CC(C)C[C@H]1C(=O)O[C@H](Cc2ccc(Cn3ccc(-c4ccccn4)n3)cc2)C(=O)N(C)[C@@H](CC(C)C)C(=O)O[C@H](C)C(=O)N(C)[C@@H](CC(C)C)C(=O)O[C@H](Cc2ccc(Cn3ccc(-c4ccccn4)n3)cc2)C(=O)N(C)[C@@H](CC(C)C)C(=O)O[C@H](C)C(=O)N1C` [Example 1b-120, (3S,6R,9S,12R,15S,18R,21S,24R)-3,9,15,21-tetraisobutyl-4,6,10,16,18,22-hexamethyl-12,24-bis(4-((3-(pyridin-2-yl)-1H-pyrazol-1-yl)methyl)benzyl)-1,7,13,19-tetraoxa-4,10,16,22-tetraazacyclotetracosan-2,5,8,11,14,17,20,23-octaone], the minimal effective concentration fell in the range of 0.01 to 0.1 µM. The same measure, in the same setting: the same measure for `CC(C)C[C@H]1C(=O)O[C@H](Cc2ccc(Cn3cc(-c4ccc(Cl)cc4)cn3)cc2)C(=O)N(C)[C@@H](CC(C)C)C(=O)O[C@H](C)C(=O)N(C)[C@@H](CC(C)C)C(=O)O[C@H](Cc2ccc(Cn3cccn3)cc2)C(=O)N(C)[C@@H](CC(C)C)C(=O)O[C@H](C)C(=O)N1C` [Example 1a-18, (3S,6R,9S,12R,15S,18R,21S,24R)-6-(4-((1H-pyrazol-1-yl)methyl)benzyl)-18-(4-((4-(4-chlorophenyl)-1H-pyrazol-1-yl)methyl)benzyl)-3,9,15,21-tetraisobutyl-4,10,12,16,22,24-hexamethyl-1,7,13,19-tetraoxa-4,10,16,22-tetraazacyclotetracosan-2,5,8,11,14,17,20,23-octaone]: 0.01 to 0.1 µM.

`CC(C)C[C@H]1C(=O)O[C@H](Cc2ccc(Cn3ccc4cccnc43)cc2)C(=O)N(C)[C@@H](CC(C)C)C(=O)O[C@H](C)C(=O)N(C)[C@@H](CC(C)C)C(=O)O[C@H](Cc2ccccc2)C(=O)N(C)[C@@H](CC(C)C)C(=O)O[C@H](C)C(=O)N1C` [Example 10-14, (3S,6R,9S,12R,15S,18R,21S,24R)-6-(4-((1H-pyrrolo[2,3-b]pyridin-1-yl)methyl)benzyl)-18-benzyl-3,9,15,21-tetraisobutyl-4,10,12,16,22,24-hexamethyl-1,7,13,19-tetraoxa-4,10,16,22-tetraazacyclotetracosan-2,5,8,11,14,17,20,23-octaone]: the minimal effective concentration lay within 0.01 to 0.1 µM.

In the next experiment the test system is third stage larvae of Haemonchus contortus. The experiment is described as follows: Haemonchus contortus L3 (HcL3) Assay. The class given is cell-based. The conditions noted are these: 96 h, read-out: HcL3 Minimum Effective Dose (MED).
Turning to `CC(C)C[C@H]1C(=O)O[C@H](Cc2cccc(Cn3cccn3)c2)C(=O)N(C)[C@@H](CC(C)C)C(=O)O[C@H](C)C(=O)N(C)[C@@H](CC(C)C)C(=O)O[C@H](Cc2ccc(Cn3cccn3)cc2)C(=O)N(C)[C@@H](CC(C)C)C(=O)O[C@H](C)C(=O)N1C` [Example 3-1, (3S,6R,9S,12R,15S,18R,21S,24R)-3,9,15,21-tetraisobutyl-4,6,10,16,18,22-hexamethyl-12-[[3-(pyrazol-1-ylmethyl)phenyl]methyl]-24-[[4-(pyrazol-1-ylmethyl)phenyl]methyl]-1,7,13,19-tetraoxa-4,10,16, 22-tetrazacyclotetracosane-2,5,8,11,14,17,20,23-octaone], the minimal effective concentration fell in the range of 1 to 10 µM. Same read-out and setting: under `CC(C)C[C@H]1C(=O)O[C@H](Cc2ccc(Cn3nccc3C(F)F)cc2)C(=O)N(C)[C@@H](CC(C)C)C(=O)O[C@H](C)C(=O)N(C)[C@@H](CC(C)C)C(=O)O[C@H](Cc2ccc(Cn3nccc3C(F)F)cc2)C(=O)N(C)[C@@H](CC(C)C)C(=O)O[C@H](C)C(=O)N1C` [Example 1b-211, (3S,6R,9S,12R,15S,18R,21S,24R)-6,18-bis(4-((5-(difluoromethyl)-1H-pyrazol-1-yl)methyl)benzyl)-3,9,15,21-tetraisobutyl-4,10,12,16,22,24-hexamethyl-1,7,13,19-tetraoxa-4,10,16,22-tetraazacyclotetracosan-2,5,8,11,14,17,20,23-octaone] stands not above 1 µM; under `CC(C)C[C@H]1C(=O)O[C@H](Cc2ccc(Cn3cc(N4CCOCC4)cn3)cc2)C(=O)N(C)[C@@H](CC(C)C)C(=O)O[C@H](C)C(=O)N(C)[C@@H](CC(C)C)C(=O)O[C@H](Cc2ccc(Cn3cc(N4CCOCC4)cn3)cc2)C(=O)N(C)[C@@H](CC(C)C)C(=O)O[C@H](C)C(=O)N1C` [Example 1b-179, (3S,6R,9S,12R,15S,18R,21S,24R)-3,9,15,21-tetraisobutyl-4,6,10,16,18,22-hexamethyl-12,24-bis(4-((4-morpholino-1H-pyrazol-1-yl)methyl)benzyl)-1,7,13,19-tetraoxa-4,10,16,22-tetraazacyclotetracosan-2,5,8,11,14,17,20,23-octaone], 1 to 10 µM; under `CC(C)C[C@H]1C(=O)O[C@H](Cc2ccc(CN3CCOCC3)cc2)C(=O)N(C)[C@@H](CC(C)C)C(=O)O[C@H](C)C(=O)N(C)[C@@H](CC(C)C)C(=O)O[C@H](Cc2ccc(CN3CCOCC3)cc2)C(=O)N(C)[C@@H](CC(C)C)C(=O)O[C@H](C)C(=O)N1C` [Example 9-1, (3S,6R,9S,12R,15S,18R,21S,24R)-3,9,15,21-tetraisobutyl-4,6,10,16,18,22-hexamethyl-12,24-bis(4-(morpholinomethyl)benzyl)-1,7,13,19-tetraoxa-4,10,16,22-tetraazacyclotetracosan-2,5,8,11,14,17,20,23-octaone], 1 to 10 µM.

On to `CC(C)C[C@H]1C(=O)O[C@H](Cc2ccc(CN3CCOCC3)cc2)C(=O)N(C)[C@@H](CC(C)C)C(=O)O[C@H](C)C(=O)N(C)[C@@H](CC(C)C)C(=O)O[C@H](Cc2ccccc2)C(=O)N(C)[C@@H](CC(C)C)C(=O)O[C@H](C)C(=O)N1C` [Example 10-6, (3S,6R,9S,12R,15S,18R,21S,24R)-6-benzyl-3,9,15,21-tetraisobutyl-4,10,12,16,22,24-hexamethyl-18-(4-(morpholinomethyl)benzyl)-1,7,13,19-tetraoxa-4,10,16,22-tetraazacyclotetracosan-2,5,8,11,14,17,20,23-octaone], for which the minimal effective concentration was in the range of 1 to 10 µM. For the compound `CC(C)C[C@H]1C(=O)O[C@H](Cc2ccc(Cn3cc(C(N)=O)cn3)cc2)C(=O)N(C)[C@@H](CC(C)C)C(=O)O[C@H](C)C(=O)N(C)[C@@H](CC(C)C)C(=O)O[C@H](Cc2ccccc2)C(=O)N(C)[C@@H](CC(C)C)C(=O)O[C@H](C)C(=O)N1C` [Example 2-53, 1-(4-(((2R,5S,8R,11S,14R,17S,20R,23S)-14-benzyl-5,11,17,23-tetraisobutyl-4,8,10,16,20,22-hexamethyl-3,6,9,12,15,18,21,24-octaoxo-1,7,13,19-tetraoxa-4,10,16,22-tetraazacyclotetracosan-2-yl)methyl)benzyl)-1H-pyrazole-4-carboxamide], the minimal effective concentration lay within 1 to 10 µM.
